The values below are quoted from earlier work in patent publication US20250241996A1, “COMBINATORIAL, AND ROTATIONAL COMBINATORIAL THERAPIES” (Starrock Pharma Inc., priority 2022, published 2025).

Where two headings read alike, the source gives them in different places. Some results are limits rather than exact numbers.

The conditions of series [1]: Model: in vitro; cited from earlier work.
For series [2] the following is noted: oral administration; mice; cited from earlier work.
The conditions of series [3]: intravenous; 18 obese patients; cited from earlier work.
For series [4] the following is noted: injections, 4-week study; saline 0.5±0.5 kg; cited from earlier work.
The conditions of series [5]: cited from earlier work.
The conditions of series [6]: cited from earlier work; for average weight reduction (efficacy estimate): placebo 2.4%; for treatment discontinuation rate due to adverse events: placebo 2.6%; for overall treatment discontinuation rate: placebo 26.4%; for people achieving at least 5% body weight reductions: placebo 28%; for Body weight change from baseline / Estimated mean weight change / Patients with weight loss of >5% / Patients with weight loss of >20%: week 72.

For series [7] the following is noted: cited from earlier work. This is another data set of the same source.
The conditions of series [8]: two hours after infusion, P<0.001, cited from earlier work.

With `O=C1CCC(N2C(=O)c3ccccc3C2=O)C(=O)N1` (stereo not drawn) [Thalidomide], the Results result in series [1] is “decrease TNF-α from Aβ42-”.
enterostatin: the serum cholesterol result in series [2] is given as “reduce serum cholesterol after oral administration in mice”. Further, the “feelings of hunger, satiety, or food preference” value in series [3] was “did not impact feelings of hunger, satiety, or food preference”.
As to “oxyntomodulin: 37-amino acid peptide hormone (SEQ ID NO:4) (HSQGTFTSDYSKYLDSRRAQDFVQWLMNTKRNRNNIA; Oxyntomodulin (OXY/OXM 53-89); listed as Homo sapiens)”, the average weight loss in series [4] was 2.3 ± 0.4 kg.
In the case of tirzepatide, the “long-term blood sugar control (A1C) and weight loss compared to semaglutide” value in series [5] (human, in vivo) was “significantly better long-term blood sugar control (i.e., A1C) and weight loss compared to semaglutide”. Besides, in series [5] (phase III, type 2 diabetes, semaglutide comparator at 1 mg), the body weight reduction is reported as > 15%. In addition, in series [6] (5 mg), the “average weight reduction (efficacy estimate)” value (from here on “average weight reduction”) was 16.0%, the “treatment discontinuation rate due to adverse events” value (“treatment discontinuation rate due” for short) was 4.3%, the “overall treatment discontinuation rate” value is recorded as 14.3% and the “people achieving at least 5% body weight reductions” value is recorded as 89%. Further, in series [6] (10 mg), the “average weight reduction” value was 21.4%, the “treatment discontinuation rate due” value is recorded as 7.1%, the “overall treatment discontinuation rate” value was 16.4% and the “people achieving at least 5% body weight reductions” value is on record as 96%. In addition, in series [6] (15 mg), the “average weight reduction” value is on record as 22.5%, the “treatment discontinuation rate due” value is recorded as 6.2%, the “overall treatment discontinuation rate” value is recorded as 15.1% and the “people achieving at least 5% body weight reductions” value is listed as 96%. Also, the “body weight lost (up to)” value in series [6] (5, 10, 15 mg, 72 weeks) was ≤ 52 lb. Also, in series [6] (SC 5 mg), the “Body weight change from baseline” value is -16 kg, the “Estimated mean weight change” value was −15%, the “Patients with weight loss of >5%” value is 85% and the “Patients with weight loss of >20%” value is 30%. In series [6] (SC 10 mg), the “Body weight change from baseline” value is -22 kg, the “Estimated mean weight change” value was −19.5%, the “Patients with weight loss of >5%” value is listed as 89% and the “Patients with weight loss of >20%” value is on record as 50%. Also, in series [6] (SC 15 mg), the “Body weight change from baseline” value was -24 kg, the “Estimated mean weight change” value is listed as −20.9%, the “Patients with weight loss of >5%” value is 91% and the “Patients with weight loss of >20%” value is given as 57%. For the same molecule, in series [6] (in vivo), the “trial participants experiencing abdominal pain” value is given as 5%, the “trial participants experiencing constipation” value is 7%, the “trial participants experiencing diarrhea” value is given as 17% and the “trial participants experiencing nausea” value was 18%. For the same molecule, the “trial participants experiencing vomiting” value in series [6] (in vivo) is on record as 9%.

B1: adiponectin: 244-amino-acid-long polypeptide (SEQ ID NO:2) (protein, listed as Homo sapiens)
chain: MLLLGAVLLLLALPGHDQETTTQGPGVLLPLPKGACTGWMAGIPGHPGHNGAPGRDGRDGTPGEKGEKGDPGLIGPKGDIGETGVPGAEGPRGFPGIQGRKGEPGEGAYVYRSAFSVGLETYVTIPNMPIRFTKIFYNQQNHYDGSTGKFHCNIPGLYYFAYHITVYMKDVKVSLFKKDKAMLFTYDQYQENNVDQASGSVLLHLEVGDQVWLQVYGEGERNGLYADNDNDSTFTGFLLYHDTN
modifications: Adiponectin
With B1, in series [7], the half-life (commonly how long it takes for the measured level to halve) is 2.5 h.

B2: PYY: 36-amino acid peptide released from cells in the ileum and colon (peptide, listed as Homo sapiens)
chain: MVFVRRPWPALTTVLLALLVCLGALVDAYPIKPEAPREDASPEELNRYYASLRHYLNLVTRQRYGKRDGPDTLLSKTFFPDGEDRPVRSRSEGPDLW
modifications: Peptide tyrosine-tyrosine (PYY)
notes: 36-amino acid peptide released from cells in the ileum and colon
Regarding B2, the “decrease of caloric intake during a buffet lunch” value in series [8] (lean subjects) is 31%; in series [8] (obese subjects), 30%.
